Measured values: patent US20200239530A1, “COMPOUNDS AND METHODS OF MODULATING PROTEIN DEGRADATION” (Vividion Therapeutics, Inc., priority 2017, published 2020)

Tests used:
[1] = target: T1, UBR4 E3 ubiquitin-protein ligase UBR4 (Homo sapiens, UniProt Q5T4S7); test: Cysteine liganding, probe competition; assay type: binding
T1 construct: Cells were resuspended in cold PBS on ice and sonicated with a probe sonicator to achieve lysis; endogenous in cells
Method in brief: (§1)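 Steps: sonicate cells in cold PBS; treat 5 mg/ml lysate with compound (25° C, 1 hr); add desthiobiotin iodoacetamide probe from a 10 mM stock (25° C, 1 hr); precipitate, reduce, alkylate, digest with trypsin; capture labelled peptides on streptavidin for analysis.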

[2] = target: T2, RPUSD3 RNA pseudouridylate synthase domain-containing pro (Homo sapiens, UniProt Q6P087); test: Cysteine liganding, probe competition; assay type: binding
T2 construct: Cells were resuspended in cold PBS on ice and sonicated with a probe sonicator to achieve lysis; endogenous in cells
T2 sequence (Q6P087 26-351): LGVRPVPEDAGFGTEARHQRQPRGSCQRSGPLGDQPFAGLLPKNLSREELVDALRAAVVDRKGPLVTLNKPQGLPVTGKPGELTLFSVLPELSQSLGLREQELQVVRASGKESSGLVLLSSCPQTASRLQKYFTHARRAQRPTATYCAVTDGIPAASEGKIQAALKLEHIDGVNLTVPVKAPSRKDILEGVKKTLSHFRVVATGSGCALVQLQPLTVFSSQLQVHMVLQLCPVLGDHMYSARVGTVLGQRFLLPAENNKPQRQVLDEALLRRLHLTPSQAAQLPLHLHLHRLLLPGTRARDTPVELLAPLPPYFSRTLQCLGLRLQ
Method in brief: as §1

T1 sequence (Q5T4S7 whole entry): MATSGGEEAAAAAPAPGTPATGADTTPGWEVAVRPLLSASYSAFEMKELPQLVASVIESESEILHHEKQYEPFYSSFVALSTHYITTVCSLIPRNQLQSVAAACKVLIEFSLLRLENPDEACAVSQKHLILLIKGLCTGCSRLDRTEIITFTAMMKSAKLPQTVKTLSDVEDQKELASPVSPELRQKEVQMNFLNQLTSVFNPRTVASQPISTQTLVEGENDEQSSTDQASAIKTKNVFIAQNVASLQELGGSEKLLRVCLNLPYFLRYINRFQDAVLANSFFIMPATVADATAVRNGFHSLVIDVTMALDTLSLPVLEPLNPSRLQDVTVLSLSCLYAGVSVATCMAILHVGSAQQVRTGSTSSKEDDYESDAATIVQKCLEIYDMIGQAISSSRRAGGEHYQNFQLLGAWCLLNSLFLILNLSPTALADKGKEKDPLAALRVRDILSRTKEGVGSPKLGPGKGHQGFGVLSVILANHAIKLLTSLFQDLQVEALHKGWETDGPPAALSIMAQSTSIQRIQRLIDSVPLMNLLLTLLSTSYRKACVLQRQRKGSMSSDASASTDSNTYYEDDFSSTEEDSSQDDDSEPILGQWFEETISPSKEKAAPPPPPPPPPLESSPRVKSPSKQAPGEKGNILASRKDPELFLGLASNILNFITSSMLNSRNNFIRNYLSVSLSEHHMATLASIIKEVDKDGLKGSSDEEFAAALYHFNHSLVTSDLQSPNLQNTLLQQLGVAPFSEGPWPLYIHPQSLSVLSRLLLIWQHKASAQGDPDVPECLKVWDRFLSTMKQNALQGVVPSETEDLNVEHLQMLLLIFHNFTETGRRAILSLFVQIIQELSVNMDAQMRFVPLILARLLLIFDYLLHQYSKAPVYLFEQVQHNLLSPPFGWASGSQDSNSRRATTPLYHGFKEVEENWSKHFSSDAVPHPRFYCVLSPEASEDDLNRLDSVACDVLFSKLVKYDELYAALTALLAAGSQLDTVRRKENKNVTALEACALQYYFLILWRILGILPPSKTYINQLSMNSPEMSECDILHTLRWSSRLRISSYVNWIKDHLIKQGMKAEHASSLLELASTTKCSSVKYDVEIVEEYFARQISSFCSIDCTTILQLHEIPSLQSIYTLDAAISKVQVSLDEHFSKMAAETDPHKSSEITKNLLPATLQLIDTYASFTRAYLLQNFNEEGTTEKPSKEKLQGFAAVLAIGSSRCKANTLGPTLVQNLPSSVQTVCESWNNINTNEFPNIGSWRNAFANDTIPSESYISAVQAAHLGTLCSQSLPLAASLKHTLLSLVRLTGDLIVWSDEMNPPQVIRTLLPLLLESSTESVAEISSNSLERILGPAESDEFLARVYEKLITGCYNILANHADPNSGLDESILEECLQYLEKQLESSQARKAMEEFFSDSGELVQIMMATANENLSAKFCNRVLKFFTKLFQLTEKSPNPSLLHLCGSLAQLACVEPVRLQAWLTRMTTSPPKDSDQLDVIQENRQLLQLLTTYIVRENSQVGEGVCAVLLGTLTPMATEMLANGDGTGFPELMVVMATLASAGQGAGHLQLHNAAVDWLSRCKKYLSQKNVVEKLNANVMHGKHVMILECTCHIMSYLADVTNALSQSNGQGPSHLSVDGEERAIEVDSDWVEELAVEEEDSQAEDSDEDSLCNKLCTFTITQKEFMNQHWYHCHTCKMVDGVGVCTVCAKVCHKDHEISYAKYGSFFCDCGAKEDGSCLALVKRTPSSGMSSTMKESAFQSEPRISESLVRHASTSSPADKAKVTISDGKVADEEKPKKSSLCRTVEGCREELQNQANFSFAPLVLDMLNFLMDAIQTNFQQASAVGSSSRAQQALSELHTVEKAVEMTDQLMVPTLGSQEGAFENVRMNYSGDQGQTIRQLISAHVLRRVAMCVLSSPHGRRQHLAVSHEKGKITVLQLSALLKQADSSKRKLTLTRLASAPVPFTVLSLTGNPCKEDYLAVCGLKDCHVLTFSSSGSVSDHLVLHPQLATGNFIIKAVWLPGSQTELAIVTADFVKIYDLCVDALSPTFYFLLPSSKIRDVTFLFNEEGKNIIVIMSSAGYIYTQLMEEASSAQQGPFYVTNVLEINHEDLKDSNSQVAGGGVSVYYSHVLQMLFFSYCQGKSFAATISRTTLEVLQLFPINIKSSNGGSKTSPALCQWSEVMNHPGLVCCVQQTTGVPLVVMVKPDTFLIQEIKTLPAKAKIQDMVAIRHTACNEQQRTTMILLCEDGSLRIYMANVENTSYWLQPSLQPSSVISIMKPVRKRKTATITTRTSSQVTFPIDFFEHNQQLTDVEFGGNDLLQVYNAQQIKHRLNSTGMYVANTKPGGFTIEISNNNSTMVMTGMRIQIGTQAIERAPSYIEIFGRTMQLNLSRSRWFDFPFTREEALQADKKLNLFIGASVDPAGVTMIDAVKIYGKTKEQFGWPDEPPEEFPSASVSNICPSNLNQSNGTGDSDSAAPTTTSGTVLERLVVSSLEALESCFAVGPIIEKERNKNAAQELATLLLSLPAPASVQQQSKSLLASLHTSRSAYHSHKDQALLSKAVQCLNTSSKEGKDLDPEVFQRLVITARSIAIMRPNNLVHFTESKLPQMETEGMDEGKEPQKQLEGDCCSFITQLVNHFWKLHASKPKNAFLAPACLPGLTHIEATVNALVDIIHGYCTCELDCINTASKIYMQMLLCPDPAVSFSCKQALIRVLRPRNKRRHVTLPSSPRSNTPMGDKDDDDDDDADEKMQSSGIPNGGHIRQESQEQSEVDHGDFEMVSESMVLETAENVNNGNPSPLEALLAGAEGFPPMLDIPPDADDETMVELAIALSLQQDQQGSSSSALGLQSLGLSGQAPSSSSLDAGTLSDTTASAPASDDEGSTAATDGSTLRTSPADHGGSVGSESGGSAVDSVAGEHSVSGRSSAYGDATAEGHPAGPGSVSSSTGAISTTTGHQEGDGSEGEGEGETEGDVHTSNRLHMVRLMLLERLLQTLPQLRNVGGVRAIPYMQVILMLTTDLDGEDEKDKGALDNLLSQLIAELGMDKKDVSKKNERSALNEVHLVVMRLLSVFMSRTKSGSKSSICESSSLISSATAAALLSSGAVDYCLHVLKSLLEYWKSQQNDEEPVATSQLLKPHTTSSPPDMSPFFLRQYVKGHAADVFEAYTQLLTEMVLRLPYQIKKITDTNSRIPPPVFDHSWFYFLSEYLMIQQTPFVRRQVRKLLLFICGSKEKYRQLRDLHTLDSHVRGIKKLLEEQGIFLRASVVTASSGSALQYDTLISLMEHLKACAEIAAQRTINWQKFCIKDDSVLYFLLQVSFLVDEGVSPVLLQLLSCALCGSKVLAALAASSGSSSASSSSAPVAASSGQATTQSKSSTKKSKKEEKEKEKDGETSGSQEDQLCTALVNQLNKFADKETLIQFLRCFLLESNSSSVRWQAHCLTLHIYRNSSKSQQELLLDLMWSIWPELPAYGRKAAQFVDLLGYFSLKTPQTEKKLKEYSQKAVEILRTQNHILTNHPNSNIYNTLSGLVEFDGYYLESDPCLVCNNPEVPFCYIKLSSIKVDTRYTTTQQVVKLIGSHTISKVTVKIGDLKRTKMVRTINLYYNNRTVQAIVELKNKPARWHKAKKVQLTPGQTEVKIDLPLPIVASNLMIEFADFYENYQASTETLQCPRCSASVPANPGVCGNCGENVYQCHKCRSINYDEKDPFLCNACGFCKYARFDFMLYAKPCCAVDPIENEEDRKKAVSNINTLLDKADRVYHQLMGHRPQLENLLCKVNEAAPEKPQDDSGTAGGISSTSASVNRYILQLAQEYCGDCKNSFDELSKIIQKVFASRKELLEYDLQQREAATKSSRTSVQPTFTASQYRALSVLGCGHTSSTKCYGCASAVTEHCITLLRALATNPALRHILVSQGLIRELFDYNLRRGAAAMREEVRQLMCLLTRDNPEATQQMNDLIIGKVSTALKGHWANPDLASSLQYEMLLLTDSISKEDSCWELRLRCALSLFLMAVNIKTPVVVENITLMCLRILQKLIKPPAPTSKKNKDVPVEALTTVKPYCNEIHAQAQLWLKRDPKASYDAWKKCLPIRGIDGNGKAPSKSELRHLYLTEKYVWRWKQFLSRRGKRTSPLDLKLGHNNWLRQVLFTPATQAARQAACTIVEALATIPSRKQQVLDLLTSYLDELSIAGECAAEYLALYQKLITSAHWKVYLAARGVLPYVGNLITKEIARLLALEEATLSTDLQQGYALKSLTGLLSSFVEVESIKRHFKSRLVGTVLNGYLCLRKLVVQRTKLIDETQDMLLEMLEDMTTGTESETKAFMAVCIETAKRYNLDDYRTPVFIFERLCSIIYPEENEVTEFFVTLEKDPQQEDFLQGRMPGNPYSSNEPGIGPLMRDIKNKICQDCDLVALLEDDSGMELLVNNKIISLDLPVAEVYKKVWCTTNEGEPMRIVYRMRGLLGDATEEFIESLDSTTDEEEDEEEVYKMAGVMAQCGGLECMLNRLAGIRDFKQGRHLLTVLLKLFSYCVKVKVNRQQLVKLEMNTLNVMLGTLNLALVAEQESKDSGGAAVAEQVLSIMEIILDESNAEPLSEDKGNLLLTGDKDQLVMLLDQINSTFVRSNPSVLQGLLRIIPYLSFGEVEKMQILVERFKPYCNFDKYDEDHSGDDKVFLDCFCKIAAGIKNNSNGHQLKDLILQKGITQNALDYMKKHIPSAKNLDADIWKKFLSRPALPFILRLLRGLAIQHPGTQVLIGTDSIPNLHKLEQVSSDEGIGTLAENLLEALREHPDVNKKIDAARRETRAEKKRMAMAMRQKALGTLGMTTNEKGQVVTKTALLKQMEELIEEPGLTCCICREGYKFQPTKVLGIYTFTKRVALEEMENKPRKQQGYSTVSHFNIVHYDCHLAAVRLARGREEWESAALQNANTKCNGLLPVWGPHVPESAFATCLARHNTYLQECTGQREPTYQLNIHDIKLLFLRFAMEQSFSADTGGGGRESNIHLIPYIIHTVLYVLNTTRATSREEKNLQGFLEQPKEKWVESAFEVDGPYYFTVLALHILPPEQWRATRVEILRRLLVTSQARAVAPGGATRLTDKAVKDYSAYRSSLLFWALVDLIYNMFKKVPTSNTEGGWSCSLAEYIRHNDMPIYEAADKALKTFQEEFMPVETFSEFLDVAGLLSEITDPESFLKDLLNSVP

COc1ccc2c(c1)CCCN2C(=O)CCl [KB02]
Liganded ([1]; UBR4 Res# 4049, uniprot Q5T4S7): YES
Liganded ([2]; RPUSD3 Res# 147, uniprot Q6P087): YES

O=C(CCl)Nc1cc(C(F)(F)F)cc(C(F)(F)F)c1 [KBO3]
100 Max ([1]; uniprot Q5T4S7): 13.1
100 ave ([1]; uniprot Q5T4S7): −4.9
500 Max ([1]; uniprot Q5T4S7): 49.5
500 ave ([1]; uniprot Q5T4S7): 29.3
100 Max ([2]; uniprot Q6P087): 14.63
100 ave ([2]; uniprot Q6P087): 9.07
500 Max ([2]; uniprot Q6P087): 49.47
500 ave ([2]; uniprot Q6P087): 49.47
